Like-named read-outs stand apart in the source and are kept apart here.
Experiments:
HIV-1 2054 (adult) [1] = assay: HIV-1 P24 antigen in PBMC coculture, drug exposure at infection and for 12 hours thereafter; assay type: cell-based
Description: (§1) Viruses: 6 viruses were titrated. The TCID50/ml of each virus isolate was as the follows:
(§2) 512.2 μl of HIV-1 302076 was added into 9487.8 μl R-3 medium. 512.2 μl of HIV-1 302077 was added into 9487.8 μl R-3 medium. 126.3 μl of HIV-1 302143 was added into 9873.7 μl R-3 medium. 1002.4 μl of HIV-1 301714 was added into 8997.6 R-3 medium. 2000 μl of HIV-1m 2054 was added into 8000.0 μl R-3 medium. 4000 μl of HTLV-IIIB was added into 6000 R-3 μl medium. Viruses were diluted to 100 TCID50 virus stock: 2.5 ml of 2000 TCID50/ml was added to 2.5 ml of R-3 medium, this is 100 TCID50 (in 100 μl) stock. PBMC: Peripheral blood mononuclear cells (PBMC) were separated from HI-1-uninfected donor by Ficoll-hypaque density gradient centrifugation. PBMC were grown in RPMI 1640 supplemented with 20% fetal calf serum, 5% IL-2 and 5 μg/ml PHA (R-3 medium).
(§3) The above step was repeated for 1:156.25, 781.25, 3906.25 and 19531.25 dilutions. Finally, the concentrations used in the experiment were 2, 0.4, 0.08, 0.016, 0.0032, 0.00064 μg/ml.
(§4) The above step was repeated for 1:625, 1:3125, 1:15625, 1:78125 and 390625 dilution. Finally, the concentrations used in the experiment were 1.
(§5) The final 3 tubes are added with 100 μPBS. […] The tubes were incubated at 37° C. overnight.
(§6) The cells were washed 3 times in PBS.

HIV-1 301714 (adult) [2] = assay: as above; assay type: cell-based
Description: as §1, §2, §3, §4, §5, §6

HIV-1 302077 (pediatric) [3] = conditions: PBMC
Description: (§7) Viruses: 6 viruses were titrated.
as §2, §3
(§8) The above step was repeated for 1:625, 1:3125, 1:15625, 1:78125 and 390625 dilution. Finally, the concentrations used in the experiment were 1. 0.2.0.04, 0.008, 0.0016, 0.00032 μg/ml.
(§9) The final three tubes are added to 100 μl PBS. […] The final 3 tubes are added with 100 μPBS. […] The final 3 tubes are added to 100 μl PBS. 100 μl of 100 TCID50 virus stock were aliquoted into all 63 tubes. 2×10^6 PBMC was added in 1.8 ml of R-3 medium (total 2.0 ml per tube). The tubes were incubated at 37° C. overnight.
(§10) The cells were washed 3 times in PBS. […] HIV-1 P24 antigen measurement was performed in the supernatant of each coculture well on days 4 and 7.0.5 ml cells (10^6/ml) in R-3 medium were added on day 4.

HTLV-IIIB (lab) [4] = conditions: PBMC
Description: as §7, §2, §3, §8, §9, §10

HIV-1 302143 (pediatric) [5] = conditions: PBMC
Description: as §7, §2, §3, §8, §9, §10

HIV-1 302076 (pediatric) [6] = conditions: PBMC
Description: as §7, §2, §3, §8, §9, §10

HIV-1 2054 (adult) [7] = assay: HIV-1 P24 antigen in PBMC coculture, continuous drug exposure; assay type: cell-based
Description: as §1, §2, §5, §6

HIV-1 301714 (adult) [8] = assay: as above; assay type: cell-based
Description: as §1, §2, §5, §6

HIV-1 302077 (pediatric) [9] = conditions: PBMC; remark: listed apart in the source
Description: as §7, §2, §9, §10

HTLV-IIIB (lab) [10] = conditions: PBMC; remark: listed apart in the source
Description: as §7, §2, §9, §10

HIV-1 302143 (pediatric) [11] = conditions: PBMC; remark: listed apart in the source
Description: as §7, §2, §9, §10

HIV-1 302076 (pediatric) [12] = conditions: PBMC; remark: listed apart in the source
Description: as §7, §2, §9, §10

[13] = HIV-1 2054, day 4, drugs removed after 12 hours
[14] = HIV-1 2054, day 7, drugs removed after 12 hours
[15] = HIV-1 301714, day 4, drugs removed after 12 hours
[16] = HIV-1 301714, day 7, drugs removed after 12 hours
[17] = HIV-1 2054, day 4, continuous drug exposure
[18] = HIV-1 2054, day 7, continuous drug exposure
[19] = HIV-1 301714, day 4, continuous drug exposure
[20] = HIV-1 301714, day 7, continuous drug exposure
[21] = day 4, continuous drug exposure
[22] = day 7, continuous drug exposure

Row | Substance | IC50 (HIV-1 2054 (adult) [1]; [13]) [mg/L] | IC50 (HIV-1 2054 (adult) [1]; [14]) [mg/L] | IC50 (HIV-1 301714 (adult) [2]; [15]) [mg/L] | IC50 (HIV-1 301714 (adult) [2]; [16]) [mg/L] | IC50 (HIV-1 2054 (adult) [7]; [17]) [mg/L] | IC50 (HIV-1 2054 (adult) [7]; [18]) [mg/L] | IC50 (HIV-1 301714 (adult) [8]; [19]) [mg/L] | IC50 (HIV-1 301714 (adult) [8]; [20]) [mg/L] | IC50 (HTLV-IIIB (lab) [10]; [21]) [mg/L] | IC50 (HTLV-IIIB (lab) [10]; [22]) [mg/L] | other results
1 | 5A8: humanized monoclonal antibody to CD4 | 0.070 | 0.13 | 0.70 | 1.82 | 0.041 | 0.017 | 0.14 | 0.30 | 0.19 | 0.16 | IC50 (HIV-1 302077 (pediatric) [3]; HIV-1 302077, day 4, drugs removed after 12 hours): 0.17 mg/L; IC50 (HIV-1 302077 (pediatric) [3]; HIV-1 302077, day 7, drugs removed after 12 hours): 0.50 mg/L; IC50 (HTLV-IIIB (lab) [4]; day 4, drugs removed after 12 hours): 0.44 mg/L; IC50 (HTLV-IIIB (lab) [4]; day 7, drugs removed after 12 hours): 1.30 mg/L; IC50 (HIV-1 302143 (pediatric) [5]; HIV-1 302143, day 4, drugs removed after 12 hours): 0.97 mg/L; IC50 (HIV-1 302143 (pediatric) [5]; HIV-1 302143, day 7, drugs removed after 12 hours): >2.0 mg/L; IC50 (HIV-1 302076 (pediatric) [6]; HIV-1 302076, day 4, drugs removed after 12 hours): 0.15 mg/L; IC50 (HIV-1 302076 (pediatric) [6]; HIV-1 302076, day 7, drugs removed after 12 hours): 0.65 mg/L; IC50 (HIV-1 302077 (pediatric) [9]; HIV-1 302077, day 4, continuous drug exposure): 0.14 mg/L; IC50 (HIV-1 302077 (pediatric) [9]; HIV-1 302077, day 7, continuous drug exposure): 0.067 mg/L; IC50 (HIV-1 302143 (pediatric) [11]; HIV-1 302143, day 4, continuous drug exposure): 0.038 mg/L; IC50 (HIV-1 302143 (pediatric) [11]; HIV-1 302143, day 7, continuous drug exposure): 0.022 mg/L; IC50 (HIV-1 302076 (pediatric) [12]; HIV-1 302076, day 4, continuous drug exposure): 0.10 mg/L; IC50 (HIV-1 302076 (pediatric) [12]; HIV-1 302076, day 7, continuous drug exposure): 0.028 mg/L
2 | enfuvirtide | 0.039 | 0.11 | 0.20 | 0.050 | 0.019 | 0.16 | 0.049 | 0.040 | 0.017 | 0.013 | –
